The test system of one assay is T1, PKC.
T1 construct: PKC was purified from rat brain using the method of Woodgett J. R. and Hunter T., J. Biol. Chem 262, 4836-4843 (1987)
Kind of assay: PKC inhibition assay. It counts as biochemical, rat. Particulars: footnote a) on the CII value: partial inhibition only. The protocol:
Preparation of PKC: PKC was purified from rat brain using the method of Woodgett J. R. and Hunter T., J. Biol. Chem 262, 4836-4843 (1987).
PKC was assayed in 50μ 25 mM HEPES, pH 7.0, 10 mM MgCl2, 2 mM CaCl2, 1 mM EDTA, 1 mM DTT, 0.25 mM ATP, 0.2 mg/mL phosphatidylserine, using 20 ng PKC and 0.08 mg/mL histone III-S as a substrate.
(§1) Enzyme, substrate and inhibitor were preincubated for 5-10 min at 4° C. in assay buffers containing a final concentration of 2% DMSO before initiating the reaction with 0.25 mM γ^2P-ATP. Samples were incubated for 30 min at 37° C. and reactions were terminated with 10% trichloracetic acid/2% sodium pyrophosphate (TCA/PPA), followed by filtration over a glass fiber filtermat (type A) with a cell harvester (Tomtec). The filtermats were washed twice for several hours with TCA/PPA until all background radioactivity was removed. Precipitable counts were quantitated directly on the filtermat with a microbeta scintillation counter system (Wallac-Pharmacia). Inhibitor data were subjected to curve fitting and IC50 values were calculated from these curves using the GraphIt program.

In another assay the target is T2, cdc2 kinase (Homo sapiens, UniProt P06493).
T2 construct: Human cdc2 kinase was prepared from nocodazole-arrested HeLa cells; endogenous in cells; host or cells: nocodazole-arrested HeLa cells
T2 sequence (P06493 whole entry): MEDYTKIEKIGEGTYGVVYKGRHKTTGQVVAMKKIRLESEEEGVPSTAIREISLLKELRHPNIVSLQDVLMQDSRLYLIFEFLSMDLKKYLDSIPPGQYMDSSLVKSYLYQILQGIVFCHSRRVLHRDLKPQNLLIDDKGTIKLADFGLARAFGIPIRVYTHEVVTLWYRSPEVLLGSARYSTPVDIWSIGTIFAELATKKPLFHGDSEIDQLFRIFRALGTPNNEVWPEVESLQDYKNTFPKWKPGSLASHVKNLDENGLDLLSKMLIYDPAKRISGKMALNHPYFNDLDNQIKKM
T2 sequence (P14635 whole entry partner): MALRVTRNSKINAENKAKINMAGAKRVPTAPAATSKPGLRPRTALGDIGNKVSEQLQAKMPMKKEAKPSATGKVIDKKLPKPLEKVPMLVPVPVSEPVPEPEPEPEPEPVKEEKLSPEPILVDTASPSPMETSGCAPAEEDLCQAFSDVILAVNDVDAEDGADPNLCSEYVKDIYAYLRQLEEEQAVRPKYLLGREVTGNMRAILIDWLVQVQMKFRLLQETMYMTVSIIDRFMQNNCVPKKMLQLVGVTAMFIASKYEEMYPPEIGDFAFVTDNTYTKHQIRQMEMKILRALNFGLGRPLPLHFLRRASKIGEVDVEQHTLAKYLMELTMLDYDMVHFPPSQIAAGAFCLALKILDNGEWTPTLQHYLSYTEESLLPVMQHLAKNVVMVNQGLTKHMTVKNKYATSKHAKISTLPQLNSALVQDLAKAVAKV
Nature of the assay: cdc2 kinase inhibition assay. Particulars: 0.25 mM ATP, human recombinant tau substrate. It counts as biochemical. The method, then:
Preparation of cdc2 Kinase: Human cdc2 kinase was prepared from nocodazole-arrested HeLa cells according to Marshak D. M. er al., J. Cell Biochem., 45, 391-400 (1991).
cdc2 kinase was assayed in 50 μl 25 mM HEPES, pH 7.0, 1 mM Mg^2+, 0.25 mM ATP (150-300 cpm/pmole), 1 mM DTT, using 0.5 ng cdc2 kinase, 5 μg human recombinant tau as substrate, and 0.1 mg/mL BSA a as carrier.
as §1

A further assay has as its system ERK2 activation. Nature of the assay: Okadaic acid induced ERK2 phosphorylation/activation in SY5Y cells. It counts as cell-based, human. Particulars: 1 μM okadaic acid; for IC50: Homo sapiens. The protocol: (§2) SKNSH-SY 5Y cells were plated on fibronectin-coated 6 well (30 mm^2) culture dishes (Biocoat®, Collaborative Biomedical Products, Inc.) and grown to confluence in 5 mL of 50% D-MEM/50% F-12 Nutrient Mixture (Ham) supplemented with 15% heat-inactivated bovine serum (JRH Bioscience), 0.1 mM non-essential amino acids solution, 2 mM glutamine and pen/strep/fungizone (GibcoBRL Life Technologies, Inc.). Cell culture medium was changed every 48 hours.
(§3) For drug testing, cells were routinely pretreated with inhibitors in 1 mL (30 mm2) for 60 min at concentrations of 30 nM, 100 nM, 300 nM, […]. Compound stocks were all at 10 mM in DMSO and dilutions were made in DMSO. Cells were then treated with 1 μM okadaic acid (ammonium salt; LC Laboratories, dissolved at 1 mM in DMSO) for 90 min. All experiments, including controls, contained a final concentration of between 0.5 and 1% DMSO.
Cells were detached from 30 mm^2 plates and suspended into 1 mL of ice-cold PBS by gentle trituration, transferred into microcentrifuge tubes and sedimented for 12 seconds at 14,000×g. […] Cell debris was removed by centrifugation at 14,000×g for 5 minutes at 4° C. and cell supernatants were analyzed by anti-ERK2 and anti-tau Western-blotting as described below.
[…] of total cell lysate was run on a 10% tris-glycine polyacrylamide gels (Novex, 1.5 mm×10 well) at 100 volts for 2.5 hors and Western-blotted on nitrocellulose (Novex) overnight at 23 volts or 1.5 hrs at 100V in transfer buffer [Towbin et al. Proc. Natl. Acad. Sci. USA 76, 4350-4354 (1979]) at 4° C. Blots were analyzed for ERK2 and phosphotyrosine immunoreactivity with anti-ERK1+2 (Z033; Zymed Laboratories, Inc.; 1:5,000) and anti-phosphotyrosine (4G10; Upstate Biotechnology Inc.; 1:1,000) mAbs. Blots were also analyzed for phosphorylation-sensitive Tau immuno-reactivity with mAb Tau-1 (Boehringer Mannheim; 1:5,000) and phosphorylation dependent mAb AT8 against FHF-tau (Biosource International; 1:200). Total Tau populations were detected by Tau-1 immunoblotting after treating blots for 16 hrs at 37° C. with 100 units/mL alkaline phosphatase (Gibco BRL) in 5 mL of 50 mM Tris-HCI (pH 8.5), 0.1 mM EDTA. All blots were developed using ECL (enhanced chemiluminescence) Western blotting protocol (Amersham Life Science) with horseradish peroxidase-linked sheep anti-mouse secondary antibody and analyzed on Kodak X-OMAT AR scientific imaging film. […] Changes in tau phosphorylation were assessed by normalizing densitometrically determined mAb Tau-1 immunoreactivities in cell extracts to Tau-1 reaction after dephosphorylation on the blot. […]

The next assay concerns tau hyperphosphorylation. Nature of the assay: Okadaic acid induced AD-like tau hyperphosphorylation in SY5Y cells. It counts as cell-based, human. Conditions: for IC50: Homo sapiens. The protocol: as §2, §3
Cells were detached from 30 mm^2 plates and suspended into 1 mL of ice-cold PBS by gentle trituration, transferred into microcentrifuge tubes and sedimented for 12 seconds at 14,000×g. The supernatant was removed and cells were lysed in 250 μl cold homogenization buffer (50 mM MES, pH 5.8, 5 mM sodium pyrophosphate, 50 mM p-nitrophenylphosphate, 1 μM okadaic acid, 2 mM Na-orthovandate, 1 mM EDTA, 1 mM EGTA, 1 mM DTT, 10^ glycerol, 10 μM leupeptin, 1 μM pepstatin, 1 mg/mL aprotinin, 10 μM chymostatin, 1 mM PMSF, and 1% TRITON® x100) and vortexed briefly to aid in lysis. Cell debris was removed by centrifugation at 14,000×g for 5 minutes at 4° C. and cell supernatants were analyzed by anti-ERK2 and anti-tau Western-blotting as described below.
[…] of total cell lysate was run on a 10% tris-glycine polyacrylamide gels (Novex, 1.5 mm×10 well) at 100 volts for 2.5 hors and Western-blotted on nitrocellulose (Novex) overnight at 23 volts or 1.5 hrs at 100V in transfer buffer [Towbin et al. Proc. Natl. Acad. Sci. USA 76, 4350-4354 (1979]) at 4° C. Blots were analyzed for ERK2 and phosphotyrosine immunoreactivity with anti-ERK1+2 (Z033; Zymed Laboratories, Inc.; 1:5,000) and anti-phosphotyrosine (4G10; Upstate Biotechnology Inc.; 1:1,000) mAbs. Blots were also analyzed for phosphorylation-sensitive Tau immuno-reactivity with mAb Tau-1 (Boehringer Mannheim; 1:5,000) and phosphorylation dependent mAb AT8 against FHF-tau (Biosource International; 1:200). Total Tau populations were detected by Tau-1 immunoblotting after treating blots for 16 hrs at 37° C. with 100 units/mL alkaline phosphatase (Gibco BRL) in 5 mL of 50 mM Tris-HCI (pH 8.5), 0.1 mM EDTA. All blots were developed using ECL (enhanced chemiluminescence) Western blotting protocol (Amersham Life Science) with horseradish peroxidase-linked sheep anti-mouse secondary antibody and analyzed on Kodak X-OMAT AR scientific imaging film. Films were scanned into Adobe Photoshop and imported into NIH Image 1.44, where densitometric analysis was performed. Changes in tau phosphorylation were assessed by normalizing densitometrically determined mAb Tau-1 immunoreactivities in cell extracts to Tau-1 reaction after dephosphorylation on the blot. Ratios of Tau-1 reactivity prior to and after dephosphorylation were expressed in % relative to the ratio obtained from control cells not treated with okadaic acid (100%). Proteins isolated form neonatal rat brain were used for comparison in some experiments.
Correlation of potencies of inhibition of PK40 activity in vitro, and of OA-induced ERK2 and tau phosphorylation in SY5Y cells. ERK2 phosphorylation was quantified as the ratio of low mobility/total ERK2, densitometrically determined from ERK2 Western-blots (e.g. of FIG. 1). Tau hyperphosphorylation was expressed as densitometrically measured Tau-1 immunoreactivity normalized to total Tau-1 reactivity after unmasking of the epitope by phosphatase treatment of the blots.
Prevention of tau hyperphosphorylation by the preferred compound CIII (FIG. 1). […]

Where [1] appears, read: SY5Y, means of triplicate determinations, read-out: Inhibition in SY5Y cells of ERK2 activation IC50.
The mark [2] stands for this setting: SY5Y, 1 μM okadaic acid, means of triplicate determinations, read-out: Inhibition in SY5Y cells of tau hyperphos. IC50.

Read-outs that look alike come from different tables or passages of the source. Some results are limits rather than exact numbers.

With `CNC(=O)[C@]1(O)CC2CC1n1c3ccccc3c3c4c(c5c6ccccc6n2c5c31)C(=O)NC4=O` (stereo partly drawn) [CII, 9,12-Methano-1H-diindolo[1,2,3-fg:3′,2′,1′-kl]pyrrolo[3,4-I][1,6] benzodiazocine-10-carboxamide, 2,3,9,10,11,12-hexahydro-10-hydroxy-N-methyl-1,3-dioxo-(9α,10β,12α)], the IC50 in the assay on PKC came out at 650 nM; on cdc2 kinase it was 44 nM; in the assay with ERK2 activation (setting [1]), 570 nM; with tau hyperphosphorylation (setting [2]), 580 nM; with tau hyperphosphorylation (SY5Y cells, okadaic acid, read-out: IC50 for prevention of tau hyperphosphorylation in SY5Y cells), 100 nM.

As for `COC(=O)[C@@]1(O)C[C@H]2C[C@@H]1n1c3ccccc3c3c4c(c5c6ccccc6n2c5c31)C(=O)NC4=O` (relative stereo) [CIII, 9,12-Methano-1H-diindolo[1,2,3-fg:3′,2′,1′-kl]pyrrolo[3,4-I][1,6] benzodiazocine-10-carboxylic acid, 2,3,9,10,11,12-hexahydro-10-hydroxy-1,3-dioxomethyl ester, (9α,10β,12α)], the IC50 was above 100000 nM in the assay with PKC; 3800 nM on cdc2 kinase; 5700 nM with ERK2 activation (setting [1]); around 1000 nM in the assay on ERK2 activation (SY5Y cells, read-out: IC50 for prevention of okadaic acid induced ERK2 phosphorylation/activation (FIG. 4)); 3600 nM in the assay with tau hyperphosphorylation (setting [2]). For the same compound, the “Concentration at which prevention of ERK2 phosphorylation/activation is complete” value in the assay with ERK2 activation (SY5Y cells) worked out at 10 µM. The “Effect on normal tau phosphorylation” value with tau hyperphosphorylation (SY5Y cells not treated by okadaic acid) is reported as “apparently not affected”. Further, the “Fully effective doses for prevention of tau hyperphosphorylation” value with tau hyperphosphorylation (SY5Y cells, 1 μM okadaic acid) is above 1 µM. Also, the “Prevention of okadaic acid induced tau hyperphosphorylation (FIG. 1)” value in the assay on tau hyperphosphorylation (SY5Y cells, 1 μM okadaic acid, Tau-1 Western blot) is on record as “prevents the tau hyperphosphorylation in a dose dependent manner”.

The values are drawn from US6541468B1, “Indolocarbazole derivatives useful for the treatment of neurodegenerative diseases and cancer” (Bayer Corporation, priority 1998, dated 2003).
